This test has as its system MV-4-11 cells. The test can be described thus: Gene expression microarray analysis (Affymetrix PrimeView) and GSEA. Also on record: RFU PODN (11730768_x_at) / Fold change /veh PODN (11730768_x_at) / RFU LINC00158 (11744669_a_at) / Fold change /veh LINC00158 (11744669_a_at) / RFU DUSP10 (11751237_a_at) / Fold change /veh DUSP10 (11751237_a_at) / RFU ID3 (11757404_x_at) / Fold change /veh ID3 (11757404_x_at) / RFU PLEKHG5 (11737974_s_at) / Fold change /veh PLEKHG5 (11737974_s_at) / RFU LRRC4B (11730491_at) / Fold change /veh LRRC4B (11730491_at) / RFU GIMAP4 (11747438_a_at) / Fold change /veh GIMAP4 (11747438_a_at) / RFU KRT8 (11758183_x_at) / Fold change /veh KRT8 (11758183_x_at) / RFU CNN1 (11734310_a_at) / Fold change /veh CNN1 (11734310_a_at) / RFU VPS37D (11726825_at) / Fold change /veh VPS37D (11726825_at) / RFU C10orf10 (11716522_x_at) / Fold change /veh C10orf10 (11716522_x_at) / RFU KIR2DL2 /// KIR2DL4 /// KIR2DL5A /// KIR2DL5B /// KIR2DS1 /// KIR2DS2 /// KIR2DS3 /// KIR2DS4 /// KIR3DL3 /// KIR3DL3 /// KIR3DS1 (11738374_at) / Fold change /veh KIR2DL2 /// KIR2DL4 /// KIR2DL5A /// KIR2DL5B /// KIR2DS1 /// KIR2DS2 /// KIR2DS3 /// KIR2DS4 /// KIR3DL3 /// KIR3DL3 /// KIR3DS1 (11738374_at) / RFU C1QL1 (11718748_at) / Fold change /veh C1QL1 (11718748_at) / RFU TMPRSS4 (11747572_a_at) / Fold change /veh TMPRSS4 (11747572_a_at) / RFU HAMP (11756126_x_at) / Fold change /veh HAMP (11756126_x_at) / RFU RNFT2 (11725882_a_at) / Fold change /veh RNFT2 (11725882_a_at) / RFU NR4A2 (11747474_a_at) / Fold change /veh NR4A2 (11747474_a_at) / RFU ABCC12 (11746883_a_at) / Fold change /veh ABCC12 (11746883_a_at) / RFU TMEM136 (11760407_x_at) / Fold change /veh TMEM136 (11760407_x_at) / RFU CLDN22 /// WWC2 (11732394_at) / Fold change /veh CLDN22 /// WWC2 (11732394_at) / RFU HLA-DPB1 (11760878_x_at) / Fold change /veh HLA-DPB1 (11760878_x_at) / RFU SPINT1 (11716480_a_at) / Fold change /veh SPINT1 (11716480_a_at) / RFU GAP43 (11754022_s_at) / Fold change /veh GAP43 (11754022_s_at) / RFU A4GNT (11735810_at) / Fold change /veh A4GNT (11735810_at) / RFU PRB3 (11715151_x_at) / Fold change /veh PRB3 (11715151_x_at) / RFU TUBB4B (11761932_at) / Fold change /veh TUBB4B (11761932_at) / RFU CAPN14 (11732068_a_at) / Fold change /veh CAPN14 (11732068_a_at) / RFU TMCC2 (11721928_a_at) / Fold change /veh TMCC2 (11721928_a_at) / RFU IRGQ (11745062_a_at) / Fold change /veh IRGQ (11745062_a_at) / RFU FAM174B (11720279_a_at) / Fold change /veh FAM174B (11720279_a_at) / RFU TMPRSS4 (11748680_a_at) / Fold change /veh TMPRSS4 (11748680_a_at) / RFU FAM212B (11763350_a_at) / Fold change /veh FAM212B (11763350_a_at) / RFU PLEKHG5 (11743358_a_at) / Fold change /veh PLEKHG5 (11743358_a_at) / RFU ZSCAN30 (11745921_a_at) / Fold change /veh ZSCAN30 (11745921_a_at) / RFU CMKLR1 (11741424_a_at) / Fold change /veh CMKLR1 (11741424_a_at) / RFU LOC101060620 /// MAPK8IP1 (11723275_at) / Fold change /veh LOC101060620 /// MAPK8IP1 (11723275_at) / RFU SPTSSB (11747773_x_at) / Fold change /veh SPTSSB (11747773_x_at) / RFU PRSS12 (11739890_at) / Fold change /veh PRSS12 (11739890_at) / RFU BIN1 (11741810_x_at) / Fold change /veh BIN1 (11741810_x_at) / RFU WNT11 (11732464_a_at) / Fold change /veh WNT11 (11732464_a_at) / RFU C10orf10 (11716521_a_at) / Fold change /veh C10orf10 (11716521_a_at) / RFU C5orf56 (11738089_at) / Fold change /veh C5orf56 (11738089_at) / RFU CYB561 (11721691_x_at) / Fold change /veh CYB561 (11721691_x_at) / RFU ANKRD19P (11752326_a_at) / Fold change /veh ANKRD19P (11752326_a_at) / RFU OR2T12 /// OR2T33 /// OR2T8 (11738714_s_at) / Fold change /veh OR2T12 /// OR2T33 /// OR2T8 (11738714_s_at) / RFU VCAN (11748164_a_at) / Fold change /veh VCAN (11748164_a_at) / RFU JSRP1 (11732532_at) / Fold change /veh JSRP1 (11732532_at) / RFU KRTAP10-11 (11738290_x_at) / Fold change /veh KRTAP10-11 (11738290_x_at) / RFU MYO3A (11730013_a_at) / Fold change /veh MYO3A (11730013_a_at) / RFU EBF3 (11725865_a_at) / Fold change /veh EBF3 (11725865_a_at) / RFU CAMK2N1 (11719241_x_at) / Fold change /veh CAMK2N1 (11719241_x_at) / RFU C5orf56 (11738088_a_at) / Fold change /veh C5orf56 (11738088_a_at) / RFU OLFML3 (11715873_a_at) / Fold change /veh OLFML3 (11715873_a_at) / RFU LOC100653217 /// NTM (11731650_a_at) / Fold change /veh LOC100653217 /// NTM (11731650_a_at) / RFU MAPK11 (11762145_a_at) / Fold change /veh MAPK11 (11762145_a_at) / RFU FIZ1 (11724087_x_at) / Fold change /veh FIZ1 (11724087_x_at) / RFU OASL (11726364_x_at) / Fold change /veh OASL (11726364_x_at) / RFU SOX15 (11748057_x_at) / Fold change /veh SOX15 (11748057_x_at) / RFU CD79A (11719716_a_at) / Fold change /veh CD79A (11719716_a_at) / RFU HIST1H1D (11736915_at) / Fold change /veh HIST1H1D (11736915_at) / RFU CASKIN2 (11723855_a_at) / Fold change /veh CASKIN2 (11723855_a_at) / RFU LOC730098 (11760151_x_at) / Fold change /veh LOC730098 (11760151_x_at) / RFU OR4N2 (11742367_at) / Fold change /veh OR4N2 (11742367_at) / RFU PRRT2 (11749266_a_at) / Fold change /veh PRRT2 (11749266_a_at) / RFU SNX32 (11753110_a_at) / Fold change /veh SNX32 (11753110_a_at) / RFU CDHR5 (11726645_a_at) / Fold change /veh CDHR5 (11726645_a_at) / RFU RCAN1 (11760418_a_at) / Fold change /veh RCAN1 (11760418_a_at) / RFU FAM167A (11723789_a_at) / Fold change /veh FAM167A (11723789_a_at) / RFU FAM26E (11764081_at) / Fold change /veh FAM26E (11764081_at) / RFU ISYNA1 (11749810_s_at) / Fold change /veh ISYNA1 (11749810_s_at) / RFU ACY1 (11761880_at) / Fold change /veh ACY1 (11761880_at) / RFU 11764098_at / Fold change /veh 11764098_at / RFU SAMD14 (11745864_x_at) / Fold change /veh SAMD14 (11745864_x_at) / RFU NPB (11741838_a_at) / Fold change /veh NPB (11741838_a_at) / RFU TMPRSS6 (11731388_a_at) / Fold change /veh TMPRSS6 (11731388_a_at) / RFU KRTAP10-2 (11738614_at) / Fold change /veh KRTAP10-2 (11738614_at) / RFU ARHGAP8 /// PRR5-ARHGAP8 (11727945_x_at) / Fold change /veh ARHGAP8 /// PRR5-ARHGAP8 (11727945_x_at) / RFU KRTAP5-7 /// NADSYN1 (11734609_at) / Fold change /veh KRTAP5-7 /// NADSYN1 (11734609_at) / RFU RASL12 (11751679_a_at) / Fold change /veh RASL12 (11751679_a_at) / RFU CDKN2B (11736163_a_at) / Fold change /veh CDKN2B (11736163_a_at) / RFU PRF1 (11729649_at) / Fold change /veh PRF1 (11729649_at) / RFU, ZNF638 /// ZNF638-IT1 / Fold change vs veh, ZNF638 /// ZNF638-IT1 / RFU, PANK3 / Fold change vs veh, PANK3 / RFU, SH3YL1 / Fold change vs veh, SH3YL1 / RFU, ZEB2 / Fold change vs veh, ZEB2 / RFU, NRIP1 / Fold change vs veh, NRIP1 / RFU, PTTG1IP / Fold change vs veh, PTTG1IP / RFU, CAPN2 / Fold change vs veh, CAPN2 / RFU, MED14 / Fold change vs veh, MED14 / RFU, SNORA58 / Fold change vs veh, SNORA58 / RFU, C1orf63 / Fold change vs veh, C1orf63 / RFU, LRRFIP1 / Fold change vs veh, LRRFIP1 / RFU, NDUFAF7 / Fold change vs veh, NDUFAF7 / RFU, SLC12A2 / Fold change vs veh, SLC12A2 / RFU, IBTK / Fold change vs veh, IBTK / RFU, ESF1 / Fold change vs veh, ESF1 / Fold change vs veh, TMEM50B / RFU, TAOK1 / Fold change vs veh, TAOK1 / RFU, ACBD3 / Fold change vs veh, ACBD3 / RFU, TMA16 / Fold change vs veh, TMA16 / RFU, RWDD3 / Fold change vs veh, RWDD3 / RFU, BCAT1 / Fold change vs veh, BCAT1 / RFU, EDEM3 / Fold change vs veh, EDEM3 / RFU, TMEM33 / Fold change vs veh, TMEM33 / RFU, WDR75 / Fold change vs veh, WDR75 / RFU, AHCTF1 / Fold change vs veh, AHCTF1 / RFU, TFRC / Fold change vs veh, TFRC / RFU, ZDHHC17 / Fold change vs veh, ZDHHC17 / RFU, NOM1 / Fold change vs veh, NOM1 / RFU, ARL8B / Fold change vs veh, ARL8B / RFU, ZBTB11 / Fold change vs veh, ZBTB11 / RFU, TAMM41 / Fold change vs veh, TAMM41 / RFU, KIAA1704 /// LOC100996395 / Fold change vs veh, KIAA1704 /// LOC100996395 / RFU, ING1 / Fold change vs veh, ING1 / RFU, TRMT61B / Fold change vs veh, TRMT61B / RFU, FUBP3 / Fold change vs veh, FUBP3 / RFU, TP53 / Fold change vs veh, TP53 / RFU, TNKS2 / Fold change vs veh, TNKS2 / RFU, ZFP14 / Fold change vs veh, ZFP14 / RFU, ACTR2 / Fold change vs veh, ACTR2 / RFU, PPP3R1 / Fold change vs veh, PPP3R1 / RFU, PIK3R1 / Fold change vs veh, PIK3R1 / RFU, HNRNPA1 / Fold change vs veh, HNRNPA1 / RFU, RNF170 / Fold change vs veh, RNF170 / RFU, ZNF28 / Fold change vs veh, ZNF28 / RFU, RNGTT / Fold change vs veh, RNGTT / RFU, OGT / Fold change vs veh, OGT / RFU, BRD1 / Fold change vs veh, BRD1 / RFU, MARS / Fold change vs veh, MARS / RFU, ZNF655 / Fold change vs veh, ZNF655 / RFU, FAHD1 / Fold change vs veh, FAHD1 / RFU, BDP1 / Fold change vs veh, BDP1 / RFU, LRRCC1 / Fold change vs veh, LRRCC1 / RFU, ARID1A / Fold change vs veh, ARID1A / RFU, ZNF146 / Fold change vs veh, ZNF146 / RFU, ZNF330 / Fold change vs veh, ZNF330 / RFU, GPN3 / Fold change vs veh, GPN3 / RFU, C9orf123 / Fold change vs veh, C9orf123 / RFU, N4BP2L2 / Fold change vs veh, N4BP2L2 / RFU, ARFIP1 / Fold change vs veh, ARFIP1 / RFU, FAM179B / Fold change vs veh, FAM179B / RFU, BCL10 / Fold change vs veh, BCL10 / RFU, UHRF1BP1L / Fold change vs veh, UHRF1BP1L / RFU, BET1 / Fold change vs veh, BET1 / RFU, CNOT2 / Fold change vs veh, CNOT2 / RFU, ZNF268 / Fold change vs veh, ZNF268 / Fold change vs veh, ZNF507 / RFU, DGCR2 / Fold change vs veh, DGCR2 / RFU, WDSUB1 / Fold change vs veh, WDSUB1 / Fold change vs veh, HSP90B1 /// MIR3652 / RFU, ADSS / Fold change vs veh, ADSS / RFU, GK / Fold change vs veh, GK / RFU, ZNF148 / Fold change vs veh, ZNF148 / RFU, TAF9 / Fold change vs veh, TAF9 / RFU, SLC1A5 / Fold change vs veh, SLC1A5 / RFU, SLMO2 / Fold change vs veh, SLMO2 / RFU, ABCC4 / Fold change vs veh, ABCC4 / RFU, LOC101060439 /// RAP1B / Fold change vs veh, LOC101060439 /// RAP1B / RFU, RFX7 / Fold change vs veh, RFX7 / RFU, GTPBP10 / Fold change vs veh, GTPBP10 / RFU, CNEP1R1 / Fold change vs veh, CNEP1R1 / RFU, BIVM-ERCC5 /// ERCC5 / Fold change vs veh, BIVM-ERCC5 /// ERCC5 / RFU, ILF3 / Fold change vs veh, ILF3 / RFU 11762660_at / Fold change /veh 11762660_at / RFU VCAN (11757783_s_at) / Fold change /veh VCAN (11757783_s_at) / RFU DDX43 (11728927_at) / Fold change /veh DDX43 (11728927_at) / RFU KRT8 (11758188_x_at) / Fold change /veh KRT8 (11758188_x_at) / RFU NKD1 (11759106_at) / Fold change /veh NKD1 (11759106_at) / RFU SRD5A1 (11742802_a_at) / Fold change /veh SRD5A1 (11742802_a_at) / RFU TPSAB1 /// TPSB2 (11721975_s_at) / Fold change /veh TPSAB1 /// TPSB2 (11721975_s_at) / RFU GSTM3 (11746129_a_at) / Fold change /veh GSTM3 (11746129_a_at) / RFU IL23R (11737362_x_at) / Fold change /veh IL23R (11737362_x_at) / RFU TMEM51 (11727254_a_at) / Fold change /veh TMEM51 (11727254_a_at) / RFU PIWIL2 (11732686_x_at) / Fold change /veh PIWIL2 (11732686_x_at) / RFU ORM1 (11744905_x_at) / Fold change /veh ORM1 (11744905_x_at) / RFU CCDC152 (11743942_at) / Fold change /veh CCDC152 (11743942_at) / RFU ECM1 (11717891_a_at) / Fold change /veh ECM1 (11717891_a_at) / RFU IL23R (11748794_a_at) / Fold change /veh IL23R (11748794_a_at) / RFU TNFAIP8L3 (11732012_x_at) / Fold change /veh TNFAIP8L3 (11732012_x_at) / RFU MBOAT4 (11741988_at) / Fold change /veh MBOAT4 (11741988_at) / RFU 11764193_at / Fold change /veh 11764193_at / RFU TMEM53 (11763286_at) / Fold change /veh TMEM53 (11763286_at) / RFU MAGEB2 (11727129_at) / Fold change /veh MAGEB2 (11727129_at) / RFU TMEM200A (11744735_a_at) / Fold change /veh TMEM200A (11744735_a_at) / RFU CCDC152 (11751479_a_at) / Fold change /veh CCDC152 (11751479_a_at) / RFU FAM211A (11726209_a_at) / Fold change /veh FAM211A (11726209_a_at) / RFU RGS16 (11746705_a_at) / Fold change /veh RGS16 (11746705_a_at) / RFU VCAN (11755009_s_at) / Fold change /veh VCAN (11755009_s_at) / RFU RHOB (11743442_s_at) / Fold change /veh RHOB (11743442_s_at) / RFU RGS16 (11720943_a_at) / Fold change /veh RGS16 (11720943_a_at) / RFU RGS16 (11720944_at) / Fold change /veh RGS16 (11720944_at) / RFU, VPS4B / Fold change vs veh, VPS4B / RFU, CREB1 / Fold change vs veh, CREB1 / RFU, DNAJC13 / Fold change vs veh, DNAJC13 / RFU, GNAQ / Fold change vs veh, GNAQ / RFU, CDK5R1 / Fold change vs veh, CDK5R1 / RFU, ZRANB3 / Fold change vs veh, ZRANB3 / RFU, CUL4A / Fold change vs veh, CUL4A / RFU, CCNY / Fold change vs veh, CCNY / RFU, UFL1 / Fold change vs veh, UFL1 / RFU, COG3 / Fold change vs veh, COG3 / RFU, DIAPH2 / Fold change vs veh, DIAPH2 / RFU, SKA2 / Fold change vs veh, SKA2 / RFU, AFF3 / Fold change vs veh, AFF3 / RFU, LMF1 / Fold change vs veh, LMF1 / RFU, IPO11 / Fold change vs veh, IPO11 / RFU, DFFB / Fold change vs veh, DFFB / RFU, FOXP1 / Fold change vs veh, FOXP1 / RFU, CARD8 / Fold change vs veh, CARD8 / RFU, STRN3 / Fold change vs veh, STRN3 / RFU, ADK / Fold change vs veh, ADK / RFU, RASSF2 / Fold change vs veh, RASSF2 / RFU, WIPF1 / Fold change vs veh, WIPF1 / RFU, LARP1B / Fold change vs veh, LARP1B / RFU, RASA1 / Fold change vs veh, RASA1 / RFU, RB1 / Fold change vs veh, RB1 / RFU, PPFIA1 / Fold change vs veh, PPFIA1 / RFU, MAT2A / Fold change vs veh, MAT2A / RFU, CCT5 / Fold change vs veh, CCT5 / RFU, WDR92 / Fold change vs veh, WDR92 / RFU, CUX1 / Fold change vs veh, CUX1 / RFU, TTC7A / Fold change vs veh, TTC7A / RFU, TMEM135 / Fold change vs veh, TMEM135 / RFU, DEPTOR / Fold change vs veh, DEPTOR / RFU, CPM / Fold change vs veh, CPM / RFU, DNAJB6 / Fold change vs veh, DNAJB6 / RFU, CACNA2D3 / Fold change vs veh, CACNA2D3 / RFU, DTX4 / Fold change vs veh, DTX4 / RFU, TFCP2 / Fold change vs veh, TFCP2 / RFU, GMCL1 /// GMCL1P1 / Fold change vs veh, GMCL1 /// GMCL1P1 / RFU, AEBP2 / Fold change vs veh, AEBP2 / RFU, SNHG1 /// SNORD22 /// SNORD25 /// SNORD26 /// SNORD27 /// SNORD28 /// SNORD29 /// SNORD31 / Fold change vs veh, SNHG1 /// SNORD22 /// SNORD25 /// SNORD26 /// SNORD27 /// SNORD28 /// SNORD29 /// SNORD31 / Fold change (Aza/veh), C12orf56 (ProbeSet 11735607_a_at) / Fold change (ACY-1035/veh), C12orf56 (ProbeSet 11735607_a_at) / Fold change (Aza/veh), FGFR1OP (ProbeSet 11751329_s_at) / Fold change (ACY-1035/veh), FGFR1OP (ProbeSet 11751329_s_at) / Fold change (Aza/veh), VPS36 (ProbeSet 11739960_a_at) / Fold change (ACY-1035/veh), VPS36 (ProbeSet 11739960_a_at) / RFU SYPL1 (11715823_x_at) / Fold change /veh SYPL1 (11715823_x_at) / RFU IGFBP7 (11715501_s_at) / Fold change /veh IGFBP7 (11715501_s_at) / RFU REEP3 (11722064_at) / Fold change /veh REEP3 (11722064_at) / RFU IGLL1 (11728026_x_at) / Fold change /veh IGLL1 (11728026_x_at): dose or concentration left out as unconfirmed. Conditions: ProbeSet 11721611_a_at; LIST D. Type of test: cell-based, human.

The values that follow come from article PMC5218480 (PLoS ONE, 2017).

As to `Nc1ccc(-c2cccs2)cc1NC(=O)c1ccc2c(c1)cc(C1CC1)n2CCN1CCOCC1` [ACY-1035], the “RFU, IPO11” value is 82.15 RFU.
